# US20060287247A1, “Halogen-substituted thienyl compounds” (priority 2001, published 2006)
# Experiments:
# S. pneumoniae ATCC 49619 = experiment: NCCLS broth microdilution MIC; assay type: cell-based, Streptococcus pneumoniae; conditions: F = S. pneumoniae ATCC 49619
# E. coli ATCC 25922 = experiment: NCCLS broth microdilution MIC; assay type: cell-based; conditions: D = E. coli ATCC 25922
# C. albicans ATCC 38247 = experiment: NCCLS broth microdilution MIC (antifungal); assay type: cell-based; conditions: E = C. albicans ATCC 38247
# B. cereus ATCC 11778 = experiment: NCCLS broth microdilution MIC; assay type: cell-based, Bacillus cereus; conditions: C = B. cereus ATCC 11778
# E. faecalis ATCC 29212 = experiment: NCCLS broth microdilution MIC; assay type: cell-based, Enterococcus faecalis; conditions: B = E. faecalis ATCC 29212
# S. aureus ATCC 29213 = experiment: NCCLS broth microdilution MIC; assay type: cell-based, Staphylococcus aureus; conditions: A = S. aureus ATCC 29213
# 5′-AAAAAGCAAAAA-3′ = assay type: binding; conditions: DNA sequence 5′-AAAAAGCAAAAA-3′; pH 7.0, 22° C.
# Protocol: (§1) A number of compounds according to this invention were screened for their ability to bind to three DNA sites, using DNase I footprinting. Generally, the procedure described in Dervan, WO 98/50582 (1998), was followed.
# (§2) A plasmid was prepared by hybridizing two sets of 5′-phosphorylated complementary oligonucleotides, one set being
# (§3) The target sites and their complements are identified in bold underline.
# (§4) The resulting duplexes were ligated to the large pUC19 AvaI/SalI restriction fragment. The 3′-P32 end-labeled EcoRI/PvuII fragment was prepared by digesting the plasmid with EcoRI and PvuII with simultaneous fill-in using Sequenase v. 2.0, [alpha-P32]-deoxyadenosine-5′-triphosphate, and [alpha-P32]-thymidine-5′-triphosphate, and isolating the cloned fragment by nondenaturing gel electrophoresis. Standard methods were used for all DNA manipulations, including A and G sequencing. See, e.g., Maxam et al., Methods Enzymol., 1980, 65, 499-560; Iverson et al., Methods Enzymol., 1987, 15, 7823-7830; and Sambrook et al., 1989, Molecular Cloning, 2nd ed., Cold Spring Harbor Laboratory Press: Cold Spring Harbor, N.Y.
# (§5) Quantitative DNase I footprint titration experiments were carried out as described previously (Dervan, WO 98/50582, 1998, “Dervan '582”) with the following changes. All reactions were carried out in a total volume of 400 μL, with polyamide stock solution or water added to 15,000 cpm radiolabeled restriction fragment affording final solution conditions of 10 mM Tris.HCl, 10 mM KCl, 10 mM MgCl2, 5 mM CaCl2, pH 7.0 and 0.01 nM, 0.1 nM, 1.0 nM, 10.0 nM polyamide or no polyamide for reference lanes. The polyamides were allowed to equilibrate at 22° C. for 16 hr. Footprinting reactions were initiated with addition of 10 μL of a DNase I stock solution (at the appropriate concentration to give ˜50% intact DNA) containing 1 mM DTT and allowed to proceed for 7 min at 22° C. The reactions were stopped, ethanol precipitated, resuspended in loading buffer, heat denatured, and placed on ice as described in Dervan '582. The reaction products were separated on a precast 8% polyacrylamide denaturing sequencing Castaway gel with 32 preformed wells from Stratagene in 1× TBE at 2000 V. Gels were dried according to the manufacturer's instructions and exposed to a storage phosphor screen (Molecular Dynamics). Quantitation and data analysis were carried out as described in Dervan '582.
# 5′-AAAAAGACAAAAA-3′ = assay type: binding; conditions: DNA sequence 5′-AAAAAGACAAAAA-3′; pH 7.0, 22° C.
# Protocol: as §1, §2, §3, §4, §5
# 5′-AAAAAGTACAAAAA-3′ = assay type: binding; conditions: DNA sequence 5′-AAAAAGTACAAAAA-3′; pH 7.0, 22° C.
# Protocol: as §1, §2, §3, §4, §5
SMILES,Minimum Inhibitory Concentration (MIC) (S. pneumoniae ATCC 49619),Minimum Inhibitory Concentration (MIC) (E. coli ATCC 25922),Minimum Inhibitory Concentration (MIC) (C. albicans ATCC 38247),Minimum Inhibitory Concentration (MIC) (B. cereus ATCC 11778),Minimum Inhibitory Concentration (MIC) (E. faecalis ATCC 29212),Minimum Inhibitory Concentration (MIC) (S. aureus ATCC 29213),Equilibrium Association Constant (Ka) (5′-AAAAAGCAAAAA-3′),Equilibrium Association Constant (Ka) (5′-AAAAAGACAAAAA-3′),Equilibrium Association Constant (Ka) (5′-AAAAAGTACAAAAA-3′)
CCN(CC)CCCNC(=O)CCNC(=O)c1cc(NC(=O)c2cc(NC(=O)CCNC(=O)c3cc(NC(=O)c4cc(NC(=O)c5cc(Br)c(Br)s5)cn4C)cn3C)cn2C)cn1C [Id-6],+++ (+++ = MIC ≦4),>32 µg/mL,>32 µg/mL,+++ (+++ = MIC ≦4),+++ (+++ = MIC ≦4),+++ (+++ = MIC ≦4),1e+10 M⁻¹,1e+10 M⁻¹,≧1 × 10^11 M^−1
CN(C)CC(C)(C)CNC(=O)CCNC(=O)c1cc(NC(=O)c2cc(NC(=O)CCNC(=O)c3cc(NC(=O)c4cc(NC(=O)c5cc(Br)c(Br)s5)cn4C)cn3C)cn2C)cn1C [Id-7],+++ (+++ = MIC ≦4),>32 µg/mL,>32 µg/mL,+++ (+++ = MIC ≦4),+++ (+++ = MIC ≦4),+++ (+++ = MIC ≦4),5e+08 M⁻¹,5e+08 M⁻¹,≧1 × 10^11 M^−1
CN1CCCN(C(=O)CCNC(=O)c2cc(NC(=O)c3cc(NC(=O)CCNC(=O)c4cc(NC(=O)c5cc(NC(=O)c6ccc(Br)s6)cn5C)cn4C)cn3C)cn2C)CC1 [Id-16],+++ (+++ = MIC ≦4),>32 µg/mL,>32 µg/mL,>32 µg/mL,>32 µg/mL,>32 µg/mL,5e+10 M⁻¹,5e+10 M⁻¹,≧1 × 10^11 M^−1
Cn1cc(NC(=O)c2cc(NC(=O)CCNC(=O)c3cc(NC(=O)c4cc(NC(=O)c5ccc(Br)s5)cn4C)cn3C)cn2C)cc1C(=O)NCCC(=O)NCCCCN [Id-17],+++ (+++ = MIC ≦4),>32 µg/mL,>32 µg/mL,+++ (+++ = MIC ≦4),++ (++ = MIC between 4 and 12),"+ (+ = MIC from 12 to 32, inclusive)",≧1 × 10^11 M^−1,≧1 × 10^11 M^−1,≧1 × 10^11 M^−1
CN(C)CCCNC(=O)CCNC(=O)c1cc(NC(=O)c2cc(NC(=O)CCNC(=O)c3cc(NC(=O)c4cc(NC(=O)c5ccc(Br)s5)cn4C)cn3C)cn2C)cn1C [Id-18],+++ (+++ = MIC ≦4),>32 µg/mL,>32 µg/mL,"+ (+ = MIC from 12 to 32, inclusive)",++ (++ = MIC between 4 and 12),>32 µg/mL,≧1 × 10^11 M^−1,≧1 × 10^11 M^−1,≧1 × 10^11 M^−1
CC(C)N(CCNC(=O)CCNC(=O)c1cc(NC(=O)c2cc(NC(=O)CCNC(=O)c3cc(NC(=O)c4cc(NC(=O)c5ccc(Br)s5)cn4C)cn3C)cn2C)cn1C)C(C)C [Id-19],+++ (+++ = MIC ≦4),>32 µg/mL,>32 µg/mL,+++ (+++ = MIC ≦4),+++ (+++ = MIC ≦4),>32 µg/mL,5e+09 M⁻¹,5e+09 M⁻¹,≧1 × 10^11 M^−1
Cn1cc(NC(=O)c2cc(NC(=O)CCNC(=O)c3cc(NC(=O)c4cc(NC(=O)c5ccc(Br)s5)cn4C)cn3C)cn2C)cc1C(=O)NCCC(=O)NCCCCCCN [Id-21],+++ (+++ = MIC ≦4),>32 µg/mL,>32 µg/mL,+++ (+++ = MIC ≦4),+++ (+++ = MIC ≦4),>32 µg/mL,5e+10 M⁻¹,1e+10 M⁻¹,≧1 × 10^11 M^−1
CCN(CC)CCNC(=O)CCNC(=O)c1cc(NC(=O)c2cc(NC(=O)CCNC(=O)c3cc(NC(=O)c4cc(NC(=O)c5ccc(Br)s5)cn4C)cn3C)cn2C)cn1C [Id-22],+++ (+++ = MIC ≦4),>32 µg/mL,>32 µg/mL,+++ (+++ = MIC ≦4),+++ (+++ = MIC ≦4),>32 µg/mL,2e+08 M⁻¹,2e+08 M⁻¹,≧1 × 10^11 M^−1
